# Measurements: a melting point compilation (Tetko et al.; mined from patent text by program, amines drawn as free bases though some values may be those of a salt)
row,melting point [°C],SMILES
1,85.1 to 86.4,CCOC(=O)N1CCN(CCNc2ncnc3c2sc2nc(-c4ccoc4)c4c(c23)CC(C)(C)CC4)CC1
2,148 to 150,[N-]=[N+]=C1c2cc(F)ccc2-c2ccc(F)cc21
3,240 to 244,NC(=O)[C@@H]1[C@H](Nc2ccnc3[nH]c(-c4cccc(CN5CCOCC5)c4)nc23)[C@H]2C=C[C@@H]1C2
4,76 to 77,CC(C)(C)NC(=O)C(=O)c1ccccc1
5,198 to 200,CCCCn1c(=O)c2c(NC)n[nH]c2n(CCNCc2ccccc2)c1=O
6,116 to 118,COc1cc(C(=S)N2CCNCC2)cc(OC)c1OC
7,95,COc1ccc(-c2nc(-c3ccc4c(c3)OCO4)c(-c3ccc4c(c3)OCO4)[nH]2)c(OC)c1
8,120 to 121,COc1cccc(C(=C/C=C/C(=O)NC(C)(C)CCCc2cccnc2)c2cccc(OC)c2)c1
9,90,Cc1cc(-n2ccnc2)c2cccc(OCc3c(Cl)ccc(S(=O)(=O)N4CCC[C@H]4C(=O)NCC4CCN(CCCO)CC4)c3Cl)c2n1
10,158 to 161,C/C(=C(\C#N)C(N)=S)N1CCCCCC1
11,214,CCC1COC(NC(=O)c2ccc(Cl)c(Cl)c2)C2CCCCN12 (centres undefined)
12,110 to 115,O=C1CC(OC2CCCCO2)C(CC2CCCCC2)N1 (centres undefined)
13,78 to 79,COc1cc(OCCBr)ccc1C=O
14,140,COc1ccc(-c2cc(-c3ccccc3)nc(C)c2C(=O)Cl)cc1OC
15,247 to 249,C[C@]1(COc2ccc(N3CCC(N4CCN(c5ccc(Cl)cc5)CC4)CC3)cc2)Cn2cc([N+](=O)[O-])nc2O1
16,165 to 166,CC(C)=C(C)CCC(C)C1CCC2(C)C3CCC4C(C)(C)C(O)CCC45CC35CCC12C (centres undefined)
17,79 to 82,CCCCc1nn(-c2ccccc2C(F)(F)F)c(=O)n1Cc1ccc(-c2cc(CCC)ccc2S(=O)(=O)NC(=O)c2ccccc2Cl)cc1F
18,210 to 211,CC(C)n1nc(-c2c(-c3ccccc3)nn3ccc(OC4CCOCC4)cc23)ccc1=O
19,129 to 130,OCc1ccc(-c2c3ccccc3nn2Cc2ccco2)cc1
20,167 to 168,CCOC(=O)c1cc2cc(NC(C)C)ccc2nn1
21,81 to 82,COc1ccc(-c2cc3c(n2CCN(C)C)CCCC3)cc1
22,145 to 147,CC(C)(Cl)CC(N)C(=O)NC(C(=O)Nc1ccccc1)C(=O)c1ccccc1 (centres undefined)
23,151 to 153,CC(C)(C)CC(=O)c1c(-c2ccc3c(Br)c(OCC(=O)O)ccc3c2)oc2ccccc12

row,melting point [°C],SMILES
1,223 to 224,CN(c1cccc2cc(C(N)=O)[nH]c12)S(=O)(=O)c1ccccc1C(F)(F)F
2,135 to 136,CC1(C2CCCC2)Cc2cc(NCCO)c(Cl)c(Cl)c2C1=O (centres undefined)
3,210 to 211,Nc1cc(-n2cccn2)nc(-c2ccc(Cl)o2)n1
4,107 to 109,CS(=O)(=O)Cc1c(C(=O)O)ccc2c1OC(F)(F)O2
5,128 to 129,CC(C)Cc1cc(NC(=O)c2nccnc2Cl)ccc1C(C(F)(F)F)C(F)(F)F
6,244,COc1ccc(C2=NN(C3CCN(S(=O)(=O)c4cccc(C(=O)O)c4)CC3)C(=O)C2(C)C)cc1OC
7,118 to 120,CC(C)c1c(C=C(Cl)Cl)c(-c2ccc(F)cc2)c2n1CCCC2
8,214,Fc1cccc(F)c1-c1nnc(-c2c(F)cccc2F)nn1
9,154 to 155,O=C(c1ccccc1)n1c(=O)c(C(F)(F)F)cn(C2CC(OCc3ccccc3)C(CO)O2)c1=O (centres undefined)
10,148,Cc1c(C(=O)NN2CCCCC2)nn(-c2ccc(Cl)cc2Cl)c1-c1ccc(Cl)cc1
11,231 to 233,N#CCCCNC(=O)c1n[nH]cc1NC(=O)c1ccccn1
12,200,COc1ccc2ccc(N3C(=O)c4ccccc4C3CC(CCC(C)C)=NO)nc2n1 (centres undefined)
13,71 to 72,CCOCc1cc2ccccc2oc1=Nc1ccccc1
14,117 to 118,CCc1nc(-c2cccc(C)c2)c(-c2ccnc(NC3CCCC3)c2)s1
15,110 to 111,O=C(O)Cc1cnn(-c2ccc(Cl)cc2)c1-c1ccccc1
16,201 to 202,COc1ccc(C(=O)NNC(=O)c2ccccc2)cc1
17,83 to 84,CC1=C(CCC(C)(O)C#CCO)C(C)(C)CCC1 (centres undefined)
18,280 to 282,Cc1ccc(Sc2ccnc3sc(C(N)=O)cc23)cc1
19,121 to 122,O=S(=O)(Nc1ccccc1COc1cccc2cccnc12)c1ccc(F)cc1
20,45 to 46,CC1=C(N)C(=O)C2CC1C2(C)C (centres undefined)
21,105 to 106,Cc1cc(Br)cnc1CCCNc1ncc(Cc2cccnc2)cc1[N+](=O)[O-]
22,180 to 184,ClC(Cl)(Cl)c1cc(-c2ccccc2)c2ccc3c(-c4ccccc4)cc(C(Cl)(Cl)Cl)nc3c2n1
23,155 to 156,CN(C)C1N(C(=O)c2ccccc2)N=C2c3ccccc3SN21 (centres undefined)

row,melting point [°C],SMILES
1,209 to 210,Cc1csc(-c2ccc3c(ccn3S(=O)(=O)c3ccccc3)c2)n1
2,266,Fc1ccc(-c2cc(C(F)(F)F)n3cnc(-c4ccncc4)c3n2)cc1Cl
3,153 to 154,CC#COc1ccc2oc3ccccc3c(=O)c2c1
4,133 to 135,O=C(Nc1cccc(OC2OC(CO)C(O)C2O)c1)C(F)(F)F (centres undefined)
5,151 to 154,O=[N+]([O-])c1oc2ccc(CN3CCOCC3)cc2c1-c1ccccc1
6,67 to 71,COc1ccc2nc(NC(=O)C(CC3CCCC3)c3ccc(S(=O)(=O)CC(C)=O)cc3)sc2n1 (centres undefined)
7,162 to 165,CN1N=C(c2ccc3c(c2)N(S(C)(=O)=O)CCO3)CCC1=O
8,90 to 91,O=C1COCCOCC(=O)NCCOCCOCCOCCN1
9,91 to 94,COc1ccc2c(c1)CCC(CN1CCC(O)(Cc3ccc(C)cc3)CC1)C2 (racemic)
10,166 to 169,"O=C(O)C1CC(c2ccccc2)=NN1C(=O)CP(=O)(O)CCCCc1ccccc1 (single isomer, unassigned; (+))"
11,171 to 173,Nc1nc(-c2cc(Cl)ccc2Cl)nc(N2C[C@H](O)C[C@H]2CO)n1
12,186 to 190,COc1cn(-c2ccc(-n3cccn3)cc2F)nc(-c2ccnn2-c2cccc(Cl)c2)c1=O
13,88,O=[N+]([O-])c1nccn1COC(CO)CO
14,155 to 157,CC(=O)N(CCCC(=NNC(N)=S)c1ccc(F)cc1)C(C)C
15,175,COc1ccn2cc(-c3ccc(C)c(C)c3)nc2c1
16,270,CCOC(=O)COC(=O)c1c(I)c(NC(C)=O)c(I)c(NC(C)=O)c1I
17,125 to 126,COc1cc(OC)c(-c2cccs2)cc1C=O
18,211 to 212,CC(=O)c1c(C)[nH]c(-c2ccc(F)cc2)c1N
19,200 to 205,O=c1c2cc(Br)ccc2[nH]n1-c1ccccc1F
20,202 to 204,CCCCCc1cc2c(nc(O)n2CCCNC(=O)NC2CCCCC2)c(N)n1
21,129 to 136,O=[N+]([O-])c1cccnc1N1CCc2ccccc2CC1
22,291 to 296,NS(=O)(=O)c1ccc(N2C(=O)CN(c3ccccc3)C2=O)cc1
23,226 to 227,COC(=O)c1ccc(-c2ccc3cc(OS(=O)(=O)C(F)(F)F)c(C45CC6CC(CC(C6)C4)C5)cc3c2)cc1

row,melting point [°C],SMILES
1,212 to 215,Cc1cccc(C)c1NC(=O)c1ccc(N)cc1
2,59 to 60,CCC(=O)C(=Cc1ccc(C#N)cc1)C(=O)CC
3,97 to 99,CCCCCCCCCCCCCCCCCCNC(=O)OCC(CNS(=O)(=O)CCCI)OC(=O)NC (centres undefined)
4,233 to 234,C[C@H](CN1CC[C@@H](F)C1)NC(=O)c1c[nH]c2ncc(-c3nn(C)c4cc(Cl)ccc34)nc12
5,179 to 180,CSc1cc(C)nc(SC)c1NC(=O)CCCCSc1nc2cccc(C(F)(F)F)c2o1
6,125 to 128,Oc1c(F)cc(Oc2ncc(C(F)(F)F)cc2F)cc1F
7,130 to 132,CC(C)c1nsc(N)c1C#N
8,235 to 236,O=C(Nc1cccnc1)c1ccc(OC(F)F)c2oc3ccc(C(F)(F)F)cc3c12
9,150 to 153,CCOC(=O)OC12Oc3cc(C(C)C)ccc3C1(OC(=O)OCC)C(=O)c1ccccc12 (centres undefined)
10,174 to 175,COCC(=O)N1c2ccc(N3C[C@H](CNC(C)=O)OC3=O)cc2C[C@H]1C
11,134 to 135,CSc1nnc(SCC(=O)C23CC4CC(CC(C4)C2)C3)s1
12,121 to 122,CC(C)OP(=O)(/C=C/CCn1cnc2c(N)ncnc21)OC(C)C
13,194 to 196,Oc1ccc(C2CCOC2(c2ccccc2)c2ccc(O)cc2)cc1 (centres undefined)
14,295 to 300,O=C(O)c1ccc(-c2ccc3cc(O)c(C45CC6CC(CC(C6)C4)C5)cc3c2)cc1
15,155 to 160,CCOc1cc2ncc(C#N)c(Nc3ccc4c(c3)S(=O)(=O)C=C4)c2cc1OCC
16,43 to 45,CNS(=O)(=O)Oc1ccccc1
17,202 to 204,COC(=O)COC(=O)C(Cc1cc(=O)[nH]c2ccccc12)NC(=O)c1ccc(Cl)cc1 (centres undefined)
18,145 to 147,CCN1C(=O)C(C)(C)C(=O)N(C)c2cc(CN(CCn3ccc4sccc4c3=O)Cc3cnccc3C)ccc21
19,133,CCC(O)(CC)c1cc(C)c(-c2cccc(OCc3ccc(CO)c(CO)c3)c2)c(C)c1
20,154 to 156,CCOC(=O)c1c(Cn2ccccc2=O)nc2cc(OC)c(OC)cc2c1-c1ccc(OC)c(OC)c1
21,188 to 191,CCCCC#Cc1nc(N)n2nc(-c3ccco3)nc2n1

row,SMILES,melting point [°C]
1,CC12CC(N3CCC(O)CC3)C(O)CC1CCC1C2CCC2(C)C(O)C(N3CCCC3)CC12 (centres undefined),188 to 190
2,CC1(C)C2CC[C@@]1(N1CCOCC1)C(=O)C2,89.5 to 90.5
3,O=C1Cc2ccnc(N3CCNCC3)c2N1,200 to 204
4,CN1CC(CCCl)Cc2ncccc2C1=S (centres undefined),110 to 120
5,Nc1ncc(CN2CC=C(c3ccccc3)CC2)c(N)n1,239 to 241
6,C1=C(c2ccc3ccccc3c2)CCN(Cc2c[nH]c3ncccc23)C1,223 to 225
7,OC1(c2ccoc2)CN2CCC1CC2 (centres undefined),130 to 133
8,OC1(c2cncnc2)CN2CCC1CC2 (centres undefined),126 to 127
9,O=C(c1ccccc1)c1cc([N+](=O)[O-])ccc1-n1nc(CO)cc1CO,145 to 147
